Laboratory results: PubChem BioAssay AID1963870 (Molecular Pharmacology Branch, DTP, NCI, 2024)
Several values for one entry are separate records, joined by “and”; a condition that tells them apart may be missing. Equal values may be shown once.

Test system: 292921-168-R-J2-PDC KRAS tumor spheroid viability
Experiment: Anticancer human tumor 292921-168-R-J2-PDC patient-derived pancreatic carcinoma cell line growth inhibition [KRAS2]
Conditions: spheroids with HUVEC and MSC; for viability, T/C: stronger effect = lower value
From the text: Multicellular complex tumor spheroid response to RAS pathway inhibitors in combination with a targeted agents in patient-derived cell lines with oncogenic KRAS variants from multiple cancer types
A high-throughput screen of multi-cell type tumor spheroids was designed to identify active combinations of targeted small molecules and KRAS pathway inhibitors. Complex spheroids include a stromal component modeled by human endothelial cells (HUVEC) and fibroblasts modeled by human mesenchymal stem cells (MSCs). The concentration ranges selected for each drug and investigational agent were based upon clinically achievable concentrations if the clinical Cmax of the agent was known.
Compounds. The drugs and investigational agents: BI-3406 (NSC825286), BAY-293 (NSC824723), batoprotafib (TNO155; NSC825523), sotorasib (AMG 510; NSC818433), MRTX1257 (NSC819558), elimusertib (BAY 1895344; NSC800525), molibresib (GSK525762; NSC774829), temuterkib (LY3214996; NSC803410), venetoclax (NSC766270), alisertib (NSC759677), olaparib (NSC753686), talazoparib (NSC767125), erdafitinib (NSC781556), ipatasertib (NSC767898), cabozantinib (NSC761068), nintedanib (NSC756659), abemaciclib (NSC768073), docetaxel (NSC628503), trametinib (NSC758246), and sapanisertib (NSC764658) were obtained from the National Cancer Institute (NCI) Developmental Therapeutics Program Chemical Repository. The FDA-approved anticancer drug set is available from the Developmental Therapeutics Program. […] The stock solutions were prepared in dimethyl sulfoxide (DMSO, Sigma-Aldrich, St. Louis, MO, cat. D2650) at 800-fold the tested concentration and stored at -70 degrees C prior to their use. All drugs and investigational agents were tested over a range starting from a high concentration at or near the clinical Cmax and decreasing in half-log increments. If the clinical Cmax for an agent had not been determined, the highest concentration tested was 10 microM.
Cell Culture. All cells were maintained in an incubator at 37 degrees C and 5% CO2 with 95% humidity. The PDC lines were cultured according to standard operating procedures established by the NCI PDMR (https://pdmr.cancer.gov/sops/default.htm). Briefly, all PDCs were thawed and cultured in Matrigel-coated flasks prepared with a working solution of 1X Ham's F-12 nutrient mix, without supplementation (Invitrogen, Waltham, MA, cat. 11765054), 100 U/mL penicillin-streptomycin (Invitrogen, cat. 15140122), and 2.5% Matrigel (Corning Inc., Corning, NY, cat. 354248) for the first three passages. All PDCs were cultured in complete DMEM/F-12 media containing advanced DMEM/F-12 (Invitrogen, cat. 12634028), 4.9% defined fetal bovine serum, heat inactivated (HyClone Laboratories Inc., Logan, UT, cat. SH30070.03HI), 389 ng/mL hydrocortisone (Sigma-Aldrich, cat. H4001), 9.7 ng/mL human EGF recombinant protein (Invitrogen, cat. PHG0313), 23.4 microg/mL adenine (Sigma-Aldrich, cat. A2786), 97.3 U/mL penicillin-streptomycin (Invitrogen, cat. 15140122), 1.9 mM L-glutamine (Invitrogen, cat. 25030081), and 9.7 microM Y-27632 dihydrochloride (Tocris Bioscience, Bristol, United Kingdom, cat. 1254). The PDCs were cultured in complete DMEM/F12 media without 9.7 microM Y-27632 dihydrochloride for at least two passages prior to the screen. The established cell line HOP-62 was cultured in RPMI 1640 medium, HEPES (Invitrogen, cat. 22400105) with 10% defined fetal bovine serum (HyClone Laboratories Inc., cat. SH30070.03) and 2 mM L-glutamine (Invitrogen, cat. 25030081). The pooled donor HUVEC were cultured in endothelial cell growth medium 2 (PromoCell, Heidelberg, Germany, cat. C-22011) and the hMSC were cultured in mesenchymal stem cell growth medium 2 (PromoCell, cat. C-28009). For all experiments, HUVEC and hMSC were used at passages </=5, while the malignant cell lines were used at passages </=15. […]

[1] = curve of first compound, second compound 0.1 µM
[2] = curve of first compound, second compound 0.316 µM
[3] = curve of first compound, second compound 1 µM
[4] = curve of first compound, second compound 3.16 µM
[5] = second compound 0.1 µM, first compound 0.0316 µM
[6] = second compound 0.1 µM, first compound 0.1 µM
[7] = second compound 0.316 µM, first compound 0.0316 µM
[8] = second compound 0.316 µM, first compound 0.1 µM
[9] = second compound 1 µM, first compound 0.0316 µM
[10] = second compound 1 µM, first compound 0.1 µM
[11] = second compound 3.16 µM, first compound 0.0316 µM
[12] = second compound 3.16 µM, first compound 0.1 µM
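Also: drug exposure lasted seven days after spheroids formed for three days.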
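For viability, T/C in this document: percent of DMSO vehicle control viability which is 100%.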

CC1OCC2(CCN(c3cnc(Sc4ccnc(N)c4Cl)c(N)n3)CC2)C1N (configuration not stated) + C=CC(=O)N1CCN(c2nc(=O)n(-c3c(C)ccnc3C(C)C)c3nc(-c4c(O)cccc4F)c(F)cc23)C(C)C1 was tested, and the IC50 [1] was 1.14 µM, the IC50 [2] was 1.92 µM and the IC50 [3] was 2.06 µM. The IC50 [4] was 0.218 µM, the IC50 (curve of first compound, second compound 10 µM) was < 0.0316 µM and the viability, T/C [5] was 96.8%. For the same compound, the viability, T/C [6] was 83.1%, the viability, T/C (second compound 0.1 µM, first compound 0.316 µM) was 64.5% and the viability, T/C (second compound 0.1 µM, first compound 1 µM) was 51%. The viability, T/C (second compound 0.1 µM, first compound 3.16 µM) was 42%, the viability, T/C (second compound 0.1 µM, first compound 10 µM) was 33.4% and the viability, T/C [7] was 108%. The viability, T/C [8] was 82.5%, the viability, T/C (second compound 0.316 µM, first compound 0.316 µM) was 69.2% and the viability, T/C (second compound 0.316 µM, first compound 1 µM) was 59.9%. For the same compound, the viability, T/C (second compound 0.316 µM, first compound 3.16 µM) was 45.6%, the viability, T/C (second compound 0.316 µM, first compound 10 µM) was 34.2% and the viability, T/C [9] was 104%. For the same compound, the viability, T/C [10] was 89.9%, the viability, T/C (second compound 1 µM, first compound 0.316 µM) was 73.5% and the viability, T/C (second compound 1 µM, first compound 1 µM) was 55.5%. It also gave a viability, T/C (second compound 1 µM, first compound 3.16 µM) of 46.6%, a viability, T/C (second compound 1 µM, first compound 10 µM) of 41.1% and a viability, T/C [11] of 65.2%. For the same compound, the viability, T/C [12] was 57.6%, the viability, T/C (second compound 3.16 µM, first compound 0.316 µM) was 45.9% and the viability, T/C (second compound 3.16 µM, first compound 1 µM) was 39%. For the same compound, the viability, T/C (second compound 3.16 µM, first compound 3.16 µM) was 36.7%, the viability, T/C (second compound 3.16 µM, first compound 10 µM) was 29.6% and the viability, T/C (second compound 10 µM, first compound 0.0316 µM) was 17.8%. The viability, T/C (second compound 10 µM, first compound 0.1 µM) was 15.9%, the viability, T/C (second compound 10 µM, first compound 0.316 µM) was 16.3% and the viability, T/C (second compound 10 µM, first compound 1 µM) was 15.5%. For the same compound, the viability, T/C (second compound 10 µM, first compound 3.16 µM) was 15.1% and the viability, T/C (second compound 10 µM, first compound 10 µM) was 14.4%.
In the case of CN(C)C/C=C/C(=O)Nc1cc2c(Nc3ccc(F)c(Cl)c3)ncnc2cc1O[C@H]1CCOC1 + C=CC(=O)N1CCN(c2nc(OCC3CCCN3C)nc3c2CCN(c2cccc4cccc(C)c24)C3)CC1CC#N, the IC50 (curve of first compound, second compound 0.0316 µM) is reported as > 0.1 µM, the IC50 [1] is reported as > 0.1 µM and the IC50 [2] is reported as > 0.1 µM. The IC50 [3] was 0.00938 µM, the IC50 [4] was < 0.000316 µM and the viability, T/C (second compound 0.0316 µM, first compound 0.000316 µM) was 110%. It also gave a viability, T/C (second compound 0.0316 µM, first compound 0.001 µM) of 97.6%, a viability, T/C (second compound 0.0316 µM, first compound 0.00316 µM) of 89.9% and a viability, T/C (second compound 0.0316 µM, first compound 0.01 µM) of 85.3%. It also gave a viability, T/C (second compound 0.0316 µM, first compound 0.0316 µM) of 76.9%, a viability, T/C (second compound 0.0316 µM, first compound 0.1 µM) of 71.9% and a viability, T/C (second compound 0.1 µM, first compound 0.000316 µM) of 99.2%. The viability, T/C (second compound 0.1 µM, first compound 0.001 µM) was 98.1%, the viability, T/C (second compound 0.1 µM, first compound 0.00316 µM) was 85.3% and the viability, T/C (second compound 0.1 µM, first compound 0.01 µM) was 84.8%. The viability, T/C [5] was 71.4%, the viability, T/C [6] was 68.2% and the viability, T/C (second compound 0.316 µM, first compound 0.000316 µM) was 77.3%. The viability, T/C (second compound 0.316 µM, first compound 0.001 µM) was 85.3%, the viability, T/C (second compound 0.316 µM, first compound 0.00316 µM) was 64.7% and the viability, T/C (second compound 0.316 µM, first compound 0.01 µM) was 60.5%. For the same compound, the viability, T/C [7] was 61.6%, the viability, T/C [8] was 49.3% and the viability, T/C (second compound 1 µM, first compound 0.000316 µM) was 56.8%. For the same compound, the viability, T/C (second compound 1 µM, first compound 0.001 µM) was 60%, the viability, T/C (second compound 1 µM, first compound 0.00316 µM) was 50.3% and the viability, T/C (second compound 1 µM, first compound 0.01 µM) was 49.5%. The viability, T/C [9] was 45.5%, the viability, T/C [10] was 34.8% and the viability, T/C (second compound 3.16 µM, first compound 0.000316 µM) was 0.73%. It also gave a viability, T/C (second compound 3.16 µM, first compound 0.001 µM) of 1.26%, a viability, T/C (second compound 3.16 µM, first compound 0.00316 µM) of 0.25% and a viability, T/C (second compound 3.16 µM, first compound 0.01 µM) of 0.27%. The viability, T/C [11] was 0.43% and the viability, T/C [12] was 0.2%.
For CC(C)NCC(C(=O)N1CCN(c2ncnc3c2C(C)CC3O)CC1)c1ccc(Cl)cc1 (configuration not stated), the viability, T/C (compound 0.0316 µM) was 93.8% [middle of 5 runs], the viability, T/C (compound 0.1 µM) was 88.5% [middle of 5 runs] and the viability, T/C (compound 0.316 µM) was 83.5% [middle of 5 runs]. The viability, T/C (compound 1 µM) was 83.1% [middle of 5 runs], the viability, T/C (compound 3.16 µM) was 76.5% [middle of 5 runs] and the viability, T/C (compound 10 µM) was 51.1% [middle of 5 runs]. The IC50 (curve of compound) was > 10 µM and 9.74 µM.
